Read-outs that look alike come from different tables or passages of the source.
Experiments:
[1] = test system: KM12 cells; experiment: Proliferation of KM12 cells (CellTiter-Glo); type: cell-based, human; settings: read-out: KM-12, IC50
Description: KM12 is a human colon cancer cell line in which NTRK1 is highly expressed, and gene fusion occurs with TPM3 to form TPM3-NTRK1. • [Test method]: Promega's CellTiter-Glo® Luminescent Cell Viability Assay kit was used to evaluate the inhibitory activity of the compounds on the proliferation of KM12 cells. • [Instrument]: Spectramax M3 multifunctional microplate reader from Molecular Devices. • [Test materials]: KM12 cell line (ATCC, item number CRL-12496), 96-well transparent flat-bottomed black-walled cell culture plate (Corning, item number #3603), RPMI-1640 media (GE, cat #SH30027.01), Fetal Bovine Serum FBS (Thermo Fisher, cat #10099-141), CellTiter-Glo® Luminescent Cell Viability Assay Kit (Promega, cat #G7572), PBS (Solarbio, cat #P1020), Trypsin (Thermo Fisher, cat #25200072), DMSO (Sigma, cat #D2650). • [Experimental procedure]: When resuscitating KM12 cells, the freezing tube was quickly shaken in a 37° C. water bath to melt within 1 minute. The thawed cell suspension was mixed uniformly with RPMI1640 medium containing 10% FBS, centrifuged at 1000 rpm for 5 minutes, and the supernatant discarded. 5 mL of complete medium (RPMI1640 medium with 10% FBS) was taken to resuspend the cell pellets, charged into a cell culture flask with a bottom area of 25 cm^2, and incubated in a cell incubator at 37° C., 95% humidity and 5% CO2. Cells were allowed to passage when the cell confluence rate reached about 80%. For cell passage, the old medium was discarded, and the cells were washed twice with PBS, and 0.5 mL trypsin was added to digest the cells. Upon dispersing into single cells and exfoliating from the bottom of the cell culture flask, 4.5 mL of new complete medium was added to terminate the digestion. After pipetting the cell suspension evenly, 1/5 of the cell suspension was kept and added with 4 mL of new complete medium, and after pipetting evenly, the cell flask was placed in the cell incubator for further culturing. Cell plating was performed when the cell confluence rate reached about 80% again. For cell plating, 1/5 of the cell suspension was kept for further culturing as in the cell passage method, and the remaining 4/5 of the cell suspension was placed in a 15 mL centrifuge tube, detected for cell viability by Trypan blue exclusion method to ensure that cell viability was above 90%. A cell suspension with a density of 3.33×10^4 viable cells/mL was prepared with complete medium, and 90 μL of such cell suspension was added to a 96-well cell culture plate to obtain a cell density of 3000 viable cells/mL in the cell culture plate. A control group containing no cells, no compound and only complete medium (i.e. culture medium control) and a control group containing no compound but containing cells (i.e. cell control) were set. The cell plate was placed in a cell incubator overnight.
The 10 mM compound stock solution in DMSO was first serially diluted with DMSO at a dilution factor of 3.16 times, to obtain 9 concentrations, and the 10th concentration was set as DMSO control without compound. Then, PBS was used to dilute the DMSO solutions of compounds of different concentrations, at a dilution factor of 100 times, so that the DMSO concentration in the compound solution of each concentration was 1%. Finally, 10 μL of each of the above solutions was added to the corresponding cell culture plate, so that the initial compound concentration was 10 μM, with the remaining concentrations being successively diluted at a dilution factor of 3.16 times, and the DMSO content in the cell culture plate was 0.1%.
The cell plate was placed in a cell incubator and cultured for 72 hours. For endpoint detection, the CellTiter-Glo reagent was melted, and the cell plate was moved to room temperature to equilibrate for 30 minutes, added with 100 μL of CellTiter-Glo for each well, and shaken on an orbital shaker for 5 minutes to fully lyse the cells. […]

[2] = test system: Ba/F3 ETV6-NTRK3-G696C cells; experiment: Proliferation of Ba/F3 ETV6-NTRK3-G696C cells (CellTiter-Glo); type: cell-based, mouse; settings: Mus musculus, BaF3, Table 7-2; separate test; read-out: Ba/F3 ETV6-NTRK3-G696C, IC50
Description: Ba/F3 ETV6-NTRK3-G696C is a stable transgenic cell line constructed by KYinno Biotechnology Co., Ltd. on mouse primary B cell Ba/F3 wherein NTRK3 is highly expressed with a mutation of G at position […] to C and fused with ETV6 to form ETV6-NTRK3. • [Test method]: Promega's CellTiter-Glo® Luminescent Cell Viability Assay kit was used to evaluate the inhibitory activity of the compounds on the proliferation of Ba/F3 ETV6-NTRK3-G696C cells. • [Instrument]: Spectramax M3 multifunctional microplate reader from Molecular Devices. • [Test materials]: Ba/F3 ETV6-NTRK3-G696C cell line (constructed by KYinno Biotechnology Co., Ltd. (Beijing)), 96-well transparent flat-bottomed black-walled cell culture plate (Corning, cat #3603), RPMI-1640 media (GE, product number #SH30027.01), fetal bovine serum FBS (Thermo Fisher, cat #10099-141), CellTiter-Glo® Luminescent Cell Viability Assay kit (Promega, cat #G7572), PBS (Solarbio, cat #P1020), DMSO (Sigma, cat #D2650). • [Experimental procedure]: When resuscitating Ba/F3 ETV6-NTRK3-G696C cells, • the freezing tube was quickly shaken in a 37° C. water bath to melt within 1 minute. The thawed cell suspension was mixed uniformly with RPMI1640 medium containing 10% FBS, centrifuged at 1000 rpm for 5 minutes, and the supernatant discarded. 5 mL of complete medium (RPMI1640 medium with 10% FBS) was taken to resuspend the cell pellets, charged into a cell culture flask with a bottom area of 25 cm^2, and incubated in a cell incubator at 37° C., 95% humidity and 5% CO2. Cells were allowed to passage when the number of cells reached about 10^6 cells/mL. For cell passage, the old cell suspension was directly pipetted evenly, 1/5 of the cell suspension was kept, 4 mL of new complete medium was added, after pipetting evenly, the cell flask was placed in the cell incubator for further culturing. Cell plating was performed when the number of cells reached about 10^6 cells/mL again. For cell plating, 1/5 of the cell suspension was kept for further culturing as in the cell passage method, and the remaining 4/5 of the cell suspension was placed in a 15 mL centrifuge tube, detected for cell viability by Trypan blue exclusion method to ensure that cell viability was above 90%. A cell suspension with a density of 5.56×10^4 viable cells/mL was prepared with complete medium, and 90 μL of such cell suspension was added to a 96-well cell culture plate to obtain the cell density of 5000 viable cells/mL in the cell culture plate. A control group containing no cells, no compound and only complete medium (i.e. culture medium control) and a control group containing no compound but containing cells (i.e. cell control) were set. The cell plate was placed in a cell incubator overnight. The 10 mM compound stock solution in DMSO was first serially diluted with DMSO at a dilution factor of 3.16 times, to obtain 9 concentrations, and the 10th concentration was set as DMSO control without compound. Then, PBS was used to dilute the DMSO solutions of compounds of different concentrations, at a dilution factor of 100 times, so that the DMSO concentration in the compound solution of each concentration was 1%. Finally, 10 μL of each of the above solutions was added to the corresponding cell culture plate, so that the initial compound concentration was 10 μM, with the remaining concentrations being successively diluted at a dilution factor of 3.16 times, and the DMSO content in the cell culture plate was 0.1%. The cell plate was placed in a cell incubator and cultured for 72 hours. For endpoint detection, the CellTiter-Glo reagent was melted, and the cell plate was moved to room temperature to equilibrate for 30 minutes, added with 100 μL of CellTiter-Glo for each well, and shaken on an orbital shaker for 5 minutes to fully lyse the cells. […]

[3] = test system: MKN45 cells; experiment: Proliferation of MKN45 cells; type: cell-based; settings: Homo sapiens, MKN-45; Table 8
Procedure: MKN45 is a human poorly differentiated gastric cancer cell line with high MET expression. Cell proliferation experiments were performed according to literature methods (Zhang, D. et al. Bioorg. Med. Chem. 2013, 21, 6804; Riss, T. L.; Moravec, R. A.; Niles, A. L.; et al. Cell Viability Assays 2013 May 1 [Updated 2016 Jul. 1]. In: Sittampalam, G. S.; Grossman, A.; Brimacombe, K.; et al., editors. Assay Guidance Manual [Internet]. Bethesda (MD): Eli Lilly & Company and the National Center for Advancing Translational Sciences; 2004-. Available from: https://www.ncbi.nlm.nih.gov/books/NBK144065/).

[4] = Homo sapiens, KM12, Table 1-2, separate test

Structure (SMILES) | IC50 [2] [nM] | IC50 [1, 4] [nM] | further results
N.N.[Cl][Pt][Cl] [Cisplatin, reference compound] |  |  | IC50 ([1]; Table 1, 72 hours): 27300 nM
CN1CCN(c2ccc(C(=O)Nc3n[nH]c4ccc(Cc5cc(F)cc(F)c5)cc34)c(NC3CCOCC3)c2)CC1 [RXDX-101, reference compound] |  |  | IC50 ([1]; Homo sapiens, KM12, 72 h, Table 1, 72 hours): 5.1 nM
Cn1ncc2cc(Oc3ccc(NC(=O)c4ccc(OCC(F)(F)F)n(-c5ccc(F)cc5)c4=O)cc3F)c(-c3cn[nH]c3)cc21 [Example 17, N-(3-fluoro-4-(1-methyl-6-(1H-pyrazol-4-yl)-1H-indazol-5-yloxy)phenyl)-1-(4-fluorophenyl)-6-(2,2,2-trifluoroethoxy)-2-oxo-1,2-dihydropyidine-3-carboxamide] | 3.7 | 19 | IC50 [3]: 15 nM

Second part, led by results:

IC50 [2] [nM] | Structure (SMILES) | IC50 [1, 4] [nM] | further results
6.3 | CCn1ncc2cc(Oc3ccc(NC(=O)c4ccc(OC5CC5)n(-c5ccc(F)cc5)c4=O)cc3F)c(-c3cn[nH]c3)cc21 [Example 25, N-(3-fluoro-4-(1-ethyl-6-(1H-pyrazol-4-yl)-1H-indazol-5-yloxy)phenyl)-1-(4-fluorophenyl)-6-cyclopropoxy-2-oxo-1,2-dihydropyridine-3-carboxamide] | 29 | 
3 | CCn1ncc2cc(Oc3ccc(NC(=O)c4ccc(OCC(F)(F)F)n(-c5ccc(F)cc5)c4=O)cc3F)c(-c3cn[nH]c3)cc21 [Example 27, N-(3-fluoro-4-(1-ethyl-6-(1H-pyrazol-4-yl)-1H-indazol-5-yloxy)phenyl)-1-(4-fluorophenyl)-6-(2,2,2-trifluoroethoxy)-2-oxo-1,2-dihydropyidine-3-carboxamide] |  | 
